Reference: US5744600A, “Phosphonomethoxy carbocyclic nucleosides and nucleotides” (Institute of Organic Chemistry and Biochemistry of the …, priority 1994, dated 1998)
Converted amounts (≈) assume the structure as drawn. Like-named read-outs stand apart in the source and are kept apart here.

Columns and labels:
[1] = system: herpes simplex virus Type 1 (HSV-1) [BW^s strain]; experiment: HSV-1 plaque reduction assay in vero cells; assay type: cell-based; conditions: Human alphaherpesvirus 1, Table II, racemic series, 48 hour incubation, read-out: HSV-1 in vitro antiviral activity (IC50)
Experimental: (§1) The antiviral activity of compounds of the invention, against both herpes viruses and human immunodeficiency virus (HIV), are presented in Table II. In Table II, the numbers in parenthesis in the columns reporting HIV activity represent the TD50, that is, the dosage at which toxic effects are observed in 50% of the population of cells tested.
(§2) The compounds were evaluated for antiviral activity in vitro by a standard plaque reduction assay. Experiments were conducted with vero cells (African Green Monkey Kidney cells) infected with herpes simplex virus Type 1 (HSV-1) [BW^s strain, C. D. Sibrack, et al., Infect. Disc., 1982, 146, 673] and herpes simplex virus Type 2 (HSV-2) [G strain, obtained from American Tissue Culture Collection, Rockville, Md.] and with MRC-5 cells (human embryonic lung (diploid) cells) infected with human cytomegalovirus (HCMV) [AD169 strain, obtained from American Tissue Culture Collection, Rockville, Md].
(§3) Briefly, confluent cell monolayers in 24-well plates were infected with 3-50 plaque-forming units of virus in 100 μl of phosphate-buffered saline. After a 1 hour adsorption period, residual inoculum was replaced with 1 mL of the appropriate dilution of the test compound which had been freshly prepared in Eagle's minimal essential medium ("EMEM") containing 10% fetal bovine serum. After a 48 hour incubation period at 37° C. in a 5% CO2 atmosphere, cell monolayers were fixed and stained with Carbol fuchsin and plaques were counted. The antiviral potency of the compound was determined by IC50, the inhibitory concentration necessary to reduce the number of plaques by 50% of those in the virus control cultures.

[2] = system: herpes simplex virus Type 2 (HSV-2) [G strain]; experiment: HSV-2 plaque reduction assay in vero cells; assay type: cell-based; conditions: Human alphaherpesvirus 2, Table II, racemic series, 48 hour incubation, read-out: HSV-2 in vitro antiviral activity (IC50)
Experimental: as §1, §2, §3

[3] = system: human cytomegalovirus (HCMV) [AD169 strain]; experiment: HCMV plaque reduction assay in MRC-5 cells; assay type: cell-based; conditions: Human betaherpesvirus 5, AD169, MRC5, Table II, racemic series, 48 hour incubation, read-out: HCMV in vitro antiviral activity (IC50)
Experimental: as §2, §3

[4] = system: Murine leukemia virus (MuLV); experiment: MuLV UV-XC plaque assay in SC-1 cells; assay type: cell-based; conditions: SC1, Table II, racemic series, read-out: MuLV in vitro antiviral activity (IC50)
Experimental: The compounds were evaluated for antiviral activity against Murine leukemia virus (MuLV) strains using the UV-XC plaque assay (Rowe, et. al., Virology, 42:1136, 1970).
The MuLV strains were grown in fetal mouse cells, (SC-1) and used for antiviral tests using the UV-XC plaque assay. Briefly, SC-1 cells are grown as monolayers in 4-well tissue culture plates and inoculated with approximately 50-100 plaque forming units of MuLV in 0.5 ml of 5% EMEM containing 20 μg/ml DEAE/Dextran. After 1 hr. adsorption, the inoculum is removed and 5 ml of 5% EMEM containing three-fold dilutions of the appropriate drug are added. Five days later, the cultures are UV-irradiated with an ultraviolet lamp and rat XC sarcoma cells are added to the cultures. Three to four days after UV-irradiation, the cell cultures are stained with Giemsa stain and the plaques are counted. Antiviral activity is expressed in terms of the reduction in the mean number of UV-XC plaques counted in the drug treated, virus-infected cultures compared with mean number of plaques counted in untreated, virus-infected control cultures. IC50 values are calculated by determining the concentration of compound necessary to reduce the number of plaques by 50% compared to those in the virus control cultures.

[5] = system: VZV (varicella zoster virus, strain ELLEN); experiment: VZV plaque inhibition assay in WI-38 cells; assay type: cell-based; conditions: 5-7 days
Experimental: (§4) Additional assays were performed in cell culture systems to determine the concentrations of compounds that are effective in preventing several kinds of viral infections. In Tables III and IV, the anti-HIV results using CEM cells were obtained using the same protocol described earlier. Figures in parenthesis represent the observed TD50 in the HIV screens indicated. Abbreviations:
(§5) HSV-1 (herpes simplex virus type 1, strain Schooler), HSV-2 (herpes simplex virus type 2, strain 186), VZV (varicella zoster virus, strain ELLEN), HCMV (human cytomegalovirus, strain AD 169 HIV (human immunodeficiency virus, strain HTLV-IIIB).
(§6) Virus was adsorbed to WI-38 cell culture monolayers in 6 well culture plates (Costar, Cambridge, Mass.) for 1 hour prior to addition of maintenance medium containing duplicate dilutions of the test compound. Inhibition of plaque development was evaluated on fixed and stained monolayers after 4 days incubation at 37° C. for HSV-1 and HSV-2, and after 5-7 days incubation at 37° C. for HCMV and VZV. ID50 values were determined from the drug concentration which conferred at least a 50% plaque reduction compared to virus controls.

[6] = system: HCMV (human cytomegalovirus, strain AD 169); experiment: HCMV plaque inhibition assay in WI-38 cells; assay type: cell-based; conditions: 5-7 days
Experimental: as §4, §5, §6

[7] = system: HSV-2 (herpes simplex virus type 2, strain 186); experiment: HSV-2 plaque inhibition assay in WI-38 cells; assay type: cell-based; conditions: Human alphaherpesvirus 2, 96 h, 4 days
Experimental: as §4, §5, §6

[8] = system: HSV-1 (herpes simplex virus type 1, strain Schooler); experiment: HSV-1 plaque inhibition assay in WI-38 cells; assay type: cell-based; conditions: Human alphaherpesvirus 1, 96 h, 4 days
Experimental: as §4, §5, §6

[9] = system: phytopathogenic bacteria and fungi; conditions: Kusaka, et al., J. Antibiotics, (1968); cited from earlier work
murine leukemia L1210 = conditions: in vitro; Herdewijn, et al., J. Med. Chem. (1985); cited from earlier work
[10] = Herdewijn, et al., J. Med. Chem. (1985); cited from earlier work
[11] = Herdewijn, et al., J. Med. Chem. (1985); cited from earlier work; remark: listed apart in the source
[12] = Human alphaherpesvirus 3, Table III, racemic series, read-out: VZV in vitro antiviral activity (ID50)
[13] = Human betaherpesvirus 5, Table III, racemic series, read-out: HCMV in vitro antiviral activity (ID50)
[14] = Table III, racemic series, read-out: HSV-2 in vitro antiviral activity (ID50)
[15] = Table III, racemic series, read-out: HSV-1 in vitro antiviral activity (ID50)

| IC50 [1] [µg/mL] | IC50 [2] [µg/mL] | IC50 [4] [µg/mL] | Compound | IC50 [3] [µg/mL] | other results |
| --- | --- | --- | --- | --- | --- |
| > 100 | > 100 | > 100 | Nc1nc2c(ncn2C2CC(OCP(=O)(O)O)C(O)C2O)c(=O)[nH]1 (centres unmarked) | 4.5 (≈ 12.5 µM) |  |
|  | 22 (≈ 60.6 µM) |  | Nc1nc2c(ncn2C2CC(OCP(=O)(O)O)C(O)C2F)c(=O)[nH]1 (centres unmarked) | 0.36 (≈ 0.991 µM) |  |
|  | > 100 | > 100 | Nc1ncnc2c1ncn2C1CC(OCP(=O)(O)O)C(O)C1O (centres unmarked) | > 100 |  |
| > 140 | > 134 |  | Cc1cn(C2C=CC(OCP(=O)(O)O)C2)c(=O)[nH]c1=O (centres unmarked) |  |  |
|  |  |  | Nc1nc2c(ncn2C2CC(OCP(=O)(O)O)CC2F)c(=O)[nH]1 (centres unmarked) |  | IC50 [5, 12]: 10 to 33 µg/mL (≈ 28.8 to 95 µM); IC50 [6, 13]: 10 to 25 µg/mL (≈ 28.8 to 72 µM); IC50 [7, 14]: 10 to 25 µg/mL (≈ 28.8 to 72 µM); IC50 [8, 15]: 10 to 25 µg/mL (≈ 28.8 to 72 µM) |
|  |  |  | Nc1ncnc2c1ncn2[C@@H]1C[C@H](CO)[C@@H](O)[C@H]1O [aristeromycin] |  | growth inhibitory activity against phytopathogenic bacteria and fungi [9]: growth inhibitory activity; activity against murine leukemia L1210 (murine leukemia L1210): active; antiviral activity [10]: has antiviral activity; cytotoxicity [11]: cytotoxic |
| 13.5 (≈ 41.3 µM) | > 50 | 5.1 (≈ 15.6 µM) | Nc1nc2c(ncn2C2C=CC(OCP(=O)(O)O)C2)c(=O)[nH]1 (centres unmarked) [drawing 15] | > 100 |  |
| > 116 | > 82 | 0.84 (≈ 2.7 µM) | Nc1ncnc2c1ncn2C1C=CC(OCP(=O)(O)O)C1 (centres unmarked) [drawing 24] | > 100 |  |
|  | > 100 |  | Nc1ncnc2c1ncn2C1CC(OCP(=O)(O)O)C(O)C1F (centres unmarked) [drawing 27] | 85 (≈ 245 µM) |  |
|  |  |  | Nc1nc2c(ncn2C2C=CC(OCP(=O)(O)O)C2)c(=O)[nH]1 (centres unmarked) [drawing 30] |  | IC50 [5, 12]: 12 to 121 µg/mL (≈ 36.7 to 370 µM); IC50 [6, 13]: > 100 µg/mL; IC50 [7, 14]: > 72 µg/mL; IC50 [8, 15]: > 72 µg/mL |
|  |  |  | Nc1ncnc2c1ncn2C1C=CC(OCP(=O)(O)O)C1 (centres unmarked) [drawing 33] |  | IC50 [5, 12]: > 100 µg/mL; IC50 [6, 13]: > 100 µg/mL; IC50 [7, 14]: > 100 µg/mL; IC50 [8, 15]: > 100 µg/mL |
|  |  |  | Nc1ncnc2c1ncn2C1CC(OCP(=O)(O)O)C(O)C1F (centres unmarked) [drawing 67] |  | IC50 ([5]; Human alphaherpesvirus 3, Table IV, enantiomeric series (1R, 4S), read-out: VZV in vitro antiviral data (ID50)): 5 to 10 µg/mL (≈ 14.4 to 28.8 µM); IC50 ([6]; Human betaherpesvirus 5, Table IV, enantiomeric series (1R, 4S), read-out: HCMV in vitro antiviral data (ID50)): > 100 µg/mL; IC50 ([7]; Table IV, enantiomeric series (1R, 4S), read-out: HSV-2 in vitro antiviral data (ID50)): 10 to 25 µg/mL (≈ 28.8 to 72 µM); IC50 ([8]; Table IV, enantiomeric series (1R, 4S), read-out: HSV-1 in vitro antiviral data (ID50)): 10 to 25 µg/mL (≈ 28.8 to 72 µM) |
